In EP0607129B1, “METHYLPIPERAZINOAZEPINE DERIVATIVES, THEIR PREPARATION AND USE” ("THERABEL RESEARCH SA/NV", priority 1991, dated 1993):

Key:
récepteurs muscariniques = tested on: récepteurs muscariniques; set-up: species or system rat CFY; conditions: 1,5 nM (³H) QNB; rat brain homogenate without cerebellum; 25°C, 60 minutes; non-specific binding with atropine 10⁻⁵M; test concentration not given
[1] = Catalepsy test (extrapyramidal side effects); type: in vivo; conditions: for catalepsie pour des doses supérieures à: dose above which catalepsy is seen; for léger / faible effet cataleptique à partir de: dose from which a slight (léger, faible) cataleptic effect is seen
Excerpt: Voir notamment GRAY W.D., OSTERBERG A.C., RAUH C.E., Arch. Int. Pharmacodyn. 134, 198, 1961 et COSTALL B., OLLEY J.E., Neuropharmacology 10, 297, 1971.
Ce test est représentatif des effets extrapyramidaux présents dans de nombreux neuroleptiques (effet secondaire non souhaitable). Les composés de l'invention provoquent très peu de catalepsie et paraissent donc dénués de cet effet secondaire non souhaitable.

apomorphine = assay: In vivo apomorphine antagonism test
[2] = graded + to +++++, 20 mg/kg for the compounds

CN1CCN(C2=Nc3ccccc3Nc3ccncc32)CC1 [Exemple 1, 11-(4-méthylpipérazin-1-yl)-5H-pyrido(4,3-b)benzo-1,5-diazépine]
Inhibition, % (binding de ³H QNB) (récepteurs muscariniques): 4,48% | catalepsie pour des doses supérieures à [1]: > 40 mg/kg

CN1CCN(C2=Nc3cc(Cl)ccc3Oc3ncccc32)CC1.O=C(O)/C=C/C(=O)O [Exemple 5, Fumaratede 8-chloro-5-(4-méthylpipérazin-1-yl)pyrido(2,3-b)benzo-1,5-oxazépine]
Test d'antagonisme a l'apomorphine: intensité de l'activité (apomorphine; [2]): +

O=C(CCCN1CCC(O)(c2ccc(Cl)cc2)CC1)c1ccc(F)cc1 [Halopéridol, reference compound]
Test d'antagonisme a l'apomorphine: intensité de l'activité (apomorphine; halopéridol at 0,63 mg/kg): +++++

CN1CCN(C2=Nc3ccccc3Oc3ncccc32)CC1.O=C(O)/C=C\C(=O)O [Exemple 4, Maléatede 5-(4-méthylpipérazin-1-yl)pyrido(2,3-b)benzo-1,5-oxazépine]
léger / faible effet cataleptique à partir de [1]: ≥ 20 mg/kg

Cc1ccc2c(c1)C(N1CCN(C)CC1)=Nc1cccnc1N2 [Exemple 11, 6-(4-méthylpipérazin-1-yl)-8-méthyl-11H-pyrido(2,3-b)benzo-1,4-diazépine]
Inhibition, % (binding de ³H QNB) (récepteurs muscariniques): 67,3%

CN1CCN(C2=Nc3cc(Cl)ccc3Nc3ccccc32)CC1 [Clozapine, reference compound]
Test d'antagonisme a l'apomorphine: intensité de l'activité (apomorphine; clozapine at 20 mg/g (so in the source)): + | léger / faible effet cataleptique à partir de [1]: ≥ 20 mg/kg

CN1CCN(C2=Nc3cnccc3Sc3ccccc32)CC1 [Exemple 18, 10-(4-méthylpipérazin-1-yl)pyrido(4,3-b)benzo-1,4-thiazépine]
Inhibition, % (binding de ³H QNB) (récepteurs muscariniques): 57,61%

CN1CCN(C2=Nc3cccnc3Oc3ccccc32)CC1.O=C(O)/C=C/C(=O)O [Exemple 7, Fumaratede 6-(4-méthylpipérazin-1-yl)pyrido(2,3-b)benzo-1,4-oxazépine]
Test d'antagonisme a l'apomorphine: intensité de l'activité (apomorphine; [2]): +

CN1CCN(C2=Nc3cccnc3Nc3ccc(F)cc32)CC1 [Exemple 13, 8-fluoro-6-(4-méthylpipérazin-1-yl)-11H-pyrido(2,3-b)benzo-1,4-diazépine]
Test d'antagonisme a l'apomorphine: intensité de l'activité (apomorphine; [2]): +

CN1CCN(C2=Nc3ccccc3Sc3ccc(Cl)cc32)CC1 [Clothiapine, reference compound]
Inhibition, % (binding de ³H QNB) (récepteurs muscariniques): 38,05%

CN1CCN(C2=Nc3cccnc3Sc3ccc(Cl)cc32)CC1.O=C(O)/C=C/C(=O)O [Exemple 3, Fumaratede 8-chloro-6-(4-méthylpipérazin-1-yl)pyrido(2,3-b)benzo-1,4-thiazépine]
catalepsie pour des doses supérieures à [1]: > 40 mg/kg

CN1CCN(C2=Nc3cccnc3Nc3ccc(Cl)cc32)CC1 [Exemple 10, 8-chloro-6-(4-méthylpipérazin-1-yl)-11H-pyrido(2,3-b)benzo-1,4-diazépine]
Inhibition, % (binding de ³H QNB) (récepteurs muscariniques): 62,08%

CN1CCN(C2=Nc3cccnc3N(C=O)c3ccccc32)CC1 [Exemple 17, 11-formyl-6-(4-méthylpipérazin-1-yl)-11H-pyrido(2,3-b)benzo-1,4-diazépine]
Inhibition, % (binding de ³H QNB) (récepteurs muscariniques): 43,38%

CN1CCN(C2=Nc3cccnc3Nc3cc(Cl)ccc32)CC1 [Exemple 12, 9-chloro-6-(4-méthylpipérazin-1-yl)-11H-pyrido(2,3-b)benzo-1,4-diazépine]
Test d'antagonisme a l'apomorphine: intensité de l'activité (apomorphine; [2]): +
